Values quoted from earlier work, collected in patent US8440844B2, “Process for the preparation of β-amino alcohol” (Council of Scientific & Industrial Research, priority 2011, dated 2013).

What was measured:
γ-secretase = conditions: Notch-1-sparing γ-secretase inhibitor; background statement, no method given
[1] = test system: β-amyloid (Aβ) production; conditions: background statement

- EC50 (γ-secretase): 28 nM
SMILES: CCC(CC)[C@@H](CO)NS(=O)(=O)c1ccc(Cl)s1 [(S)—N-(5-chlorothiophene-2-sulfonyl)-β,β-diethylalaninol]
- reduction of Aβ production in vivo [1]: effective in reduction of Aβ production in vivo
